Molecules are shown by their SMILES. ≈ marks a conversion by molar mass, not a printed value. Where only a bound is given, the exact number is not on record here.

One series concerns Escherichia coli. Kind of series: Antibacterial activity against Escherichia coli ATCC 25922 assessed as inhibition of bacterial growth incubated for 18 to 24 hrs by broth microdilution assay. Type of series: functional. The note with it: time 18-24 hrs. A general note: Broth dilution looks for growth in wells or tubes with falling amounts of substance.
Series [1] deals with Staphylococcus aureus. As to the kind of experiment: Antibacterial activity against Staphylococcus aureus ATCC 43300 assessed as inhibition of bacterial growth incubated for 18 to 24 hrs by broth microdilution assay. Type of series: functional. The note with it: time 18-24 hrs.
The test system of another series is L02. Kind of series: Cytotoxicity against human L02 cells assessed as reduction in cell viability at 25 ug/ml incubated for 72 hrs by CCK-8 assay. In kind it is toxicity, cell-based. The note with it: l02, 72 h, dose 25 µg/ml. (In general: Tetrazolium assays rely on reduction of a dye to a coloured formazan, in cell work by metabolically active cells.)
Series [2] can be described thus: Hemolytic activity in rabbit RBC assessed as hemolysis incubated for 1 hr by microtiter plate method. Type of series: toxicity, cell-based, Oryctolagus cuniculus, Erythrocyte. Conditions: red blood cells.
Series [3] deals with Staphylococcus aureus. Kind of series: Antibacterial activity against Staphylococcus aureus ATCC 33591 assessed as inhibition of bacterial growth incubated for 18 to 24 hrs by broth microdilution assay. In kind it is functional. Conditions: time 18-24 hrs.
For the next series, the system named is A549. Kind of series: Cytotoxicity against human A549 cells assessed as reduction in cell viability at 25 ug/ml incubated for 72 hrs by CCK-8 assay. In kind it is toxicity, cell-based. Conditions: a549, 72 h, dose 25 µg/ml.
Series [4] concerns Staphylococcus aureus. Kind of series: Antibacterial activity against Staphylococcus aureus ATCC 29213 assessed as inhibition of bacterial growth incubated for 18 to 24 hrs by broth microdilution assay. Conditions: time 18-24 hrs. In kind it is functional.
The test system of series [5] is Staphylococcus aureus. Kind of series: Antibacterial activity against Staphylococcus aureus SH-27 assessed as inhibition of bacterial growth incubated for 18 to 24 hrs by broth microdilution assay. Conditions: time 18-24 hrs. Type of series: functional.
Series [6] relates to Staphylococcus aureus. As to the kind of experiment: Antibacterial activity against methicillin-resistant Staphylococcus aureus 2 assessed as inhibition of bacterial growth incubated for 18 to 24 hrs by broth microdilution assay. In kind it is functional. The note with it: time 18-24 hrs.
The subject of another series is Salmonella enteritidis. As to the kind of experiment: Antibacterial activity against Salmonella enteritidis SM012 assessed as inhibition of bacterial growth incubated for 18 to 24 hrs by broth microdilution assay. Type of series: functional, Salmonella enterica subsp. enterica serovar Enteritidis. Conditions: Salmonella enterica, time 18-24 hrs.

In general, MIC refers to the smallest concentration in the dilution series that meets the test's criterion for growth inhibition. As a reminder, the HC50 is the concentration giving 50% haemolysis. With `COc1c(O)cc2oc3cc(O)c(CC=C(C)C)c(OC(=O)C(C)C)c3c(=O)c2c1CC=C(C)C`, the MIC in the series with Escherichia coli was more than 256 µg/mL; in the series with Staphylococcus aureus [1], 1 µg/mL (≈ 2.08 µM); with Staphylococcus aureus [3] it was 1 µg/mL (≈ 2.08 µM); in the series on Staphylococcus aureus [4], 2 µg/mL (≈ 4.16 µM); in the series on Staphylococcus aureus [5] it was 1 µg/mL (≈ 2.08 µM); in the series on Staphylococcus aureus [6], 2 µg/mL (≈ 4.16 µM). The MIC in the series on Salmonella enteritidis was more than 256 µg/mL. For the same compound, the Activity entry in the series with L02 and in the series on A549 was “Non-Toxic” throughout. Also, the HC50 at 1 h in [2] is 263 µg/mL.
As to `COc1c(O)cc2oc3cc(OC(=O)C(C)C)c(CC=C(C)C)c(O)c3c(=O)c2c1CC=C(C)C`, the MIC in the series on Escherichia coli, with Staphylococcus aureus [1], with Staphylococcus aureus [3], with Staphylococcus aureus [4], in the series with Staphylococcus aureus [5] and in the series with Staphylococcus aureus [6] was more than 256 µg/mL each time. Moreover, the minimum inhibitory concentration (MIC) in the series on Salmonella enteritidis is more than 256 µg/mL.
For `COc1c(OC(C)=O)cc2oc3cc(OC(C)=O)c(CC=C(C)C)c(OC(C)=O)c3c(=O)c2c1CC=C(C)C`, the minimal inhibitory concentration (MIC) with Escherichia coli is more than 256 µg/mL; in the series with Staphylococcus aureus [1], more than 256 µg/mL; in the series on Staphylococcus aureus [3], more than 256 µg/mL; with Staphylococcus aureus [4], 128 µg/mL (≈ 239 µM); in the series with Staphylococcus aureus [5], 16 µg/mL (≈ 29.8 µM); with Staphylococcus aureus [6] it was more than 256 µg/mL. Also, in the series with Salmonella enteritidis, the MIC was more than 256 µg/mL. The Activity result in the series on L02 and in the series with A549 was “Non-Toxic” in each case. Moreover, in [2], the concentration for 50% haemolysis (HC50) at 1 h was more than 500 µg/mL.
`COc1c(O)cc2oc3cc4c(c(O)c3c(=O)c2c1CC=C(C)C)CCC(C)(C)O4`: the MIC was more than 256 µg/mL in the series on Escherichia coli; 64 µg/mL (≈ 156 µM) with Staphylococcus aureus [1]; 32 µg/mL (≈ 78 µM) in the series with Staphylococcus aureus [3]; 64 µg/mL (≈ 156 µM) with Staphylococcus aureus [4]; 64 µg/mL (≈ 156 µM) with Staphylococcus aureus [5]; 64 µg/mL (≈ 156 µM) in the series with Staphylococcus aureus [6]. For the same compound, the MIC in the series on Salmonella enteritidis was more than 256 µg/mL.
On to `COc1c(OC(C)=O)cc2oc3cc(OC(C)=O)c(CC=C(C)C)c(O)c3c(=O)c2c1CC=C(C)C`, for which the MIC in the series on Escherichia coli, in the series on Staphylococcus aureus [1], in the series with Staphylococcus aureus [3], in the series with Staphylococcus aureus [4], in the series on Staphylococcus aureus [5] and in the series with Staphylococcus aureus [6] was more than 256 µg/mL throughout. The MIC in the series with Salmonella enteritidis was more than 256 µg/mL.
For `COc1c(O)cc2c(c1CC=C(C)C)Cc1c(cc(O)c(CC=C(C)C)c1O)O2`, the MIC is more than 256 µg/mL in the series with Escherichia coli; 4 µg/mL (≈ 10.1 µM) in the series with Staphylococcus aureus [1]; 8 µg/mL (≈ 20.2 µM) in the series on Staphylococcus aureus [3]; 16 µg/mL (≈ 40.4 µM) in the series with Staphylococcus aureus [4]; 8 µg/mL (≈ 20.2 µM) in the series on Staphylococcus aureus [5]; 16 µg/mL (≈ 40.4 µM) in the series on Staphylococcus aureus [6]. In the series with Salmonella enteritidis, the minimum inhibitory concentration (MIC) is more than 256 µg/mL. Also, the Activity entry in the series on L02 and in the series with A549 was “Non-Toxic” in each case. In addition, the concentration for 50% haemolysis (HC50) at 1 h in series [2] is more than 500 µg/mL.
Regarding `COc1cc2oc3cc(OC)c(OC)c(CC=C(C)C)c3c(=O)c2c(OC)c1CC=C(C)C`, the minimal inhibitory concentration (MIC) with Escherichia coli, in the series on Staphylococcus aureus [1], in the series on Staphylococcus aureus [3], in the series with Staphylococcus aureus [4], in the series on Staphylococcus aureus [5] and in the series with Staphylococcus aureus [6] was more than 256 µg/mL throughout. In addition, the minimal inhibitory concentration (MIC) in the series on Salmonella enteritidis was more than 256 µg/mL.
Consider `COc1c(OCc2ccccc2)cc2oc3cc(OCc4ccccc4)c(CC=C(C)C)c(OCc4ccccc4)c3c(=O)c2c1CC=C(C)C`, for which the MIC in the series on Escherichia coli, in the series on Staphylococcus aureus [1], in the series with Staphylococcus aureus [3], with Staphylococcus aureus [4], with Staphylococcus aureus [5] and in the series with Staphylococcus aureus [6] was more than 256 µg/mL throughout. Moreover, the MIC with Salmonella enteritidis was more than 256 µg/mL.
For the compound `COc1c(O)cc2oc3cc(O)c(CCC(C)C)c(O)c3c(=O)c2c1CCC(C)C`, the MIC was more than 256 µg/mL in the series on Escherichia coli; 32 µg/mL (≈ 77.2 µM) in the series on Staphylococcus aureus [1]; 64 µg/mL (≈ 154 µM) in the series on Staphylococcus aureus [3]; 32 µg/mL (≈ 77.2 µM) in the series on Staphylococcus aureus [4]; 64 µg/mL (≈ 154 µM) in the series on Staphylococcus aureus [5]; 64 µg/mL (≈ 154 µM) in the series on Staphylococcus aureus [6]. In addition, the minimal inhibitory concentration (MIC) with Salmonella enteritidis was more than 256 µg/mL.
For the compound `COc1c(OCCCCCCO)cc2oc3cc(O)c(CC=C(C)C)c(O)c3c(=O)c2c1CC=C(C)C`, the MIC in the series with Escherichia coli, with Staphylococcus aureus [1], with Staphylococcus aureus [3], in the series with Staphylococcus aureus [4], with Staphylococcus aureus [5] and in the series on Staphylococcus aureus [6] was more than 256 µg/mL each time. Further, the MIC in the series with Salmonella enteritidis is more than 256 µg/mL.
Turning to `C=CCOc1cc2oc3cc(O)c(CC=C(C)C)c(O)c3c(=O)c2c(CC=C(C)C)c1OC`, the MIC in the series on Escherichia coli is more than 256 µg/mL; in the series with Staphylococcus aureus [1] it was 256 µg/mL (≈ 568 µM); in the series on Staphylococcus aureus [3] it was 256 µg/mL (≈ 568 µM); in the series on Staphylococcus aureus [4], more than 256 µg/mL; with Staphylococcus aureus [5], 2 µg/mL (≈ 4.44 µM); in the series on Staphylococcus aureus [6], more than 256 µg/mL. For the same compound, the MIC with Salmonella enteritidis is more than 256 µg/mL. The Activity result in the series on L02 and with A549 was “Non-Toxic” throughout. In addition, the 50% haemolytic concentration (HC50) at 1 h in series [2] is 403 µg/mL.
As for `C=CCOc1cc2oc3cc(OCC=C)c(OC)c(CC=C(C)C)c3c(=O)c2c(OC(=O)C(C)C)c1CC=C(C)C`, the MIC in the series on Escherichia coli, in the series on Staphylococcus aureus [1], in the series with Staphylococcus aureus [3], with Staphylococcus aureus [4], in the series on Staphylococcus aureus [5] and with Staphylococcus aureus [6] was more than 256 µg/mL in each case. For the same compound, the minimum inhibitory concentration (MIC) in the series on Salmonella enteritidis is more than 256 µg/mL.
As for `COc1c(O)cc2oc3cc(OC(C)=O)c(CC=C(C)C)c(O)c3c(=O)c2c1CC=C(C)C`, the MIC in the series on Escherichia coli, in the series with Staphylococcus aureus [1], in the series with Staphylococcus aureus [3], with Staphylococcus aureus [4], in the series with Staphylococcus aureus [5] and in the series on Staphylococcus aureus [6] was more than 256 µg/mL in each case. Moreover, the MIC with Salmonella enteritidis is more than 256 µg/mL.
`COc1c(OC(=O)C(C)C)cc2oc3cc(OC(=O)C(C)C)c(CC=C(C)C)c(O)c3c(=O)c2c1CC=C(C)C`: the minimal inhibitory concentration (MIC) in the series on Escherichia coli, with Staphylococcus aureus [1], in the series with Staphylococcus aureus [3], with Staphylococcus aureus [4], in the series on Staphylococcus aureus [5] and in the series with Staphylococcus aureus [6] was more than 256 µg/mL throughout. The minimal inhibitory concentration (MIC) in the series on Salmonella enteritidis is more than 256 µg/mL.
As for `COc1c(OC(=O)C(C)C)cc2oc3cc(OC(=O)C(C)C)c(CC=C(C)C)c(OC(=O)C(C)C)c3c(=O)c2c1CC=C(C)C`, the MIC in the series on Escherichia coli, in the series with Staphylococcus aureus [1], in the series on Staphylococcus aureus [3], in the series on Staphylococcus aureus [4], in the series on Staphylococcus aureus [5] and in the series on Staphylococcus aureus [6] was more than 256 µg/mL each time. In the series with Salmonella enteritidis, the MIC was more than 256 µg/mL.
Take `C=CCOc1cc2oc3cc(OCC=C)c(OC)c(CC=C(C)C)c3c(=O)c2c(O)c1CC=C(C)C`: the MIC in the series with Escherichia coli, in the series on Staphylococcus aureus [1], in the series on Staphylococcus aureus [3], in the series on Staphylococcus aureus [4], in the series on Staphylococcus aureus [5] and with Staphylococcus aureus [6] was more than 256 µg/mL in each case. For the same compound, the MIC in the series on Salmonella enteritidis is more than 256 µg/mL.
Regarding `COc1c(OC(=O)C(C)C)cc2oc3cc(O)c(CC=C(C)C)c(O)c3c(=O)c2c1CC=C(C)C`, the minimal inhibitory concentration (MIC) in the series with Escherichia coli, with Staphylococcus aureus [1], with Staphylococcus aureus [3], in the series on Staphylococcus aureus [4], in the series with Staphylococcus aureus [5] and with Staphylococcus aureus [6] was more than 256 µg/mL each time. Further, the minimum inhibitory concentration (MIC) in the series on Salmonella enteritidis is more than 256 µg/mL.
For the compound `C=CCOc1cc2oc3cc(OCC=C)c(OC)c(CC=C(C)C)c3c(=O)c2c(OC(C)=O)c1CC=C(C)C`, the MIC with Escherichia coli, in the series with Staphylococcus aureus [1], in the series on Staphylococcus aureus [3], with Staphylococcus aureus [4], with Staphylococcus aureus [5] and in the series on Staphylococcus aureus [6] was more than 256 µg/mL in each case. For the same compound, in the series with Salmonella enteritidis, the MIC was more than 256 µg/mL.
Regarding `COc1c(OCCCCCCO)cc2oc3cc(OCCCCCCO)c(CC=C(C)C)c(O)c3c(=O)c2c1CC=C(C)C`, the minimum inhibitory concentration (MIC) in the series on Escherichia coli, with Staphylococcus aureus [1], in the series with Staphylococcus aureus [3], in the series on Staphylococcus aureus [4], in the series on Staphylococcus aureus [5] and in the series on Staphylococcus aureus [6] was more than 256 µg/mL throughout. The MIC in the series on Salmonella enteritidis was more than 256 µg/mL.

These data come from ChEMBL document CHEMBL5252628, “Novel xanthone antibacterials: Semi-synthesis, biological evaluation, and the action mechanisms” (Bioorg Med Chem, 2023).
